According to patent US20130122127A1, “Extract of Coptidis Rhizoma and novel use thereof in treating respiratory disease” (AHN-GOOK PHARMACEUTICAL CO., LTD., priority 2008, published 2013):
“And” between values parts separate entries of the source, which are not always exact repeats. Identical values can stand only once.

Tests used:
[1] = tested on: male mouse; assay: Expectorant activity, phenol red secretion method in mouse; assay type: in vivo
Experimental: In order to measure expectorant activities of Coptidis Rhizoma extracts of the Examples 1-1 to 1-3, experiment was conducted using Engler et al. method ([…]. Pharmacol. Moth. 11, 151 157, 1984, Bao-quin Lin et., Pulmonary Pharmacology & Therapeutics 21, 259 263, 2008.) in the following procedure. A positive control drug (ambroxol, Sigma) and test drugs (Coptidis Rhizoma extract of Examples 1-1 to 1-3) were orally administered to a male mouse (8-weeks age, Sam tako BioKorea), and after 30 minutes, 500 mg/kg of phenol red was intraperitoneally injected (phenol red was dissolved in saline). After 30 minutes, the mouse was anesthetized with diethyl ether, exsanguinated by cutting the abdominal aorta, and then the whole trachea was resected. […] In order to evaluate expectorant activities of the combined extract and single extract prepared in the Example 2 (2-1 to 2-11), experiment was conducted by the same method as described in [Experiment method] of Experiment 3-1, using Engler, et al. method ([…]. Pharmacol. Moth. 11, 151 157, 1984., Bao-quin Lin et., Pulmonary Pharmacology & Therapeutics 21, 259 263, 2008.), of which results are shown in FIG. 2.

[2] = tested on: immunoglobulin E (IgE); assay: Murine asthma model: IgE value in blood plasma (ELISA); assay type: in vivo, mouse; conditions: Day 21, 30 mg/kg oral
Experimental: (§1) And, for evaluation, examination of airway hyper-responsiveness (AHR) for methacholine, examination of IgE value in blood plasma, examination of the number of cells and the distribution of white blood cells in bronchoalveolar lavage fluid (BALF), observation of pulmonary tissue, and RT-PCR (IL-1β, IL-4, IL-13r2a) were conducted.
(§2) To a Balb/c mouse (18˜21 g, Orientbio Inc.), an ovalbumin (OVA, Sigma) solution prepared for intraperitoneal injection was intraperitoneally administered in an amount of 500 ul (20 ug as OVA) per one mouse at Day 0 and Day 7, and it was sensitized with a solution prepared for OVA inhalation using a nebulizer (NE-U17, OMRON Co. Ltd, Japan) and then, the prepared 5% OVA solution was inhaled everyday for 30 minutes from Day 14 to Day 20. As positive control drug, 30 mg/kg of montelukast sodium was used, and all the experiment materials were used in an amount of 200 mg/kg. […]
For the animal measured according to 1), about 0.05 ml of blood was collected by orbital blood sampling and centrifuged, and the obtained plasma was divided into two parts and diluted to 1:10 to examine immunoglobulin E (IgE) value in plasma through IgE enzyme linked immunosorbent assay (ELISA; IgE ELISA kit for mouse, ME-151, SHIBAYAGI Co., Ltd., JAPAN).

[3] = tested on: IL-1β; assay: Murine asthma model: RT-PCR of lung tissue, IL-1β; assay type: in vivo, mouse; conditions: band density divided by actin density, 30 mg/kg oral
Experimental: as §1, §2
(§3) Right pulmonary tissue was rapidly taken off and stored at −80° C. before experiment. RNA was separated from the tissue using RNA-Bee (Tel-Test Inc. USA), and the separated RNA was quantified at 260 nm using a spectrometer, and then, 4 ug of RNA and Oligo dT 2 ul (Promega), DEPC water were added to make 10 ul and the mixture was reacted at 65 r for 5 minutes. […]

[4] = tested on: OVA-sensitized Balb/c mouse; assay: Murine asthma model: airway hyper-responsiveness (AHR) to methacholine; assay type: in vivo; conditions: 30 mg/kg oral, Day 14-20
Experimental: as §1
(§4) To a Balb/c mouse (18˜21 g, Orientbio Inc.), an ovalbumin (OVA, Sigma) solution prepared for intraperitoneal injection was intraperitoneally administered in an amount of 500 ul (20 ug as OVA) per one mouse at Day 0 and Day 7, and it was sensitized with a solution prepared for OVA inhalation using a nebulizer (NE-U17, OMRON Co. Ltd, Japan) and then, the prepared 5% OVA solution was inhaled everyday for 30 minutes from Day 14 to Day 20. As positive control drug, 30 mg/kg of montelukast sodium was used, and all the experiment materials were used in an amount of 200 mg/kg. And, positive control drug and the experiment materials were orally administered everyday one hour before OVA inhalation for 7 days of from Day 14 to Day 20 after sensitization, and then, experiments were conducted by the following evaluation items.
24 hours after final inhalation of OVA (at Day 21), the mouse was put in a whole body plethysmograph (BUXCO, USA), each 0.4 ml of methacholine solutions of concentrations of 0, 10 and 20 mg/ml were taken to introduce in an aerosol, and inhaled to the mouse respectively for 3 minutes. And, Penh were measured for 4 minutes from the inhalation time, and the average value was set as Penh (enhanced pause) at corresponding dosage of methacholine.

[5] = tested on: IL-13r2a; assay: Murine asthma model: RT-PCR of lung tissue, IL-13r2a; assay type: in vivo, mouse; conditions: band density divided by actin density, 30 mg/kg oral
Experimental: as §1, §2, §3

[6] = tested on: pulmonary tissue; assay: Murine asthma model: observation of pulmonary tissue; assay type: in vivo, mouse; conditions: score 1=No, 2=slight, 3=thin, 4=moderate, 5=thick; 30 mg/kg oral
Experimental: as §1, §4
The left lung fixed with a nipper was taken off and fixed with a 10% formalin solution for one day, and then, paraffin-penetrated tissue using a tissue processor was cut to a thickness of 3-4 um using a microtome to make tissue fragments. […]

[7] = tested on: IL-4; assay: Murine asthma model: RT-PCR of lung tissue, IL-4; assay type: in vivo, mouse; conditions: band density divided by actin density, 30 mg/kg oral
Experimental: as §1, §2, §3

[8] = tested on: neutrophils and eosinophils in BALF; assay: Murine asthma model: number of cells in bronchoalveolar lavage fluid (BALF); assay type: in vivo, mouse; conditions: Day 22, 30 mg/kg oral
Experimental: as §1, §2
To the animals whose blood was sampled according to 2), sodium pentothal (50 mg/kg) was injected intraperitoneally to anesthetize it. […] For the suspension, the numbers of total leucocytes, neutrophils, eosinophils and lymphocytes were measured using automated hematology analyzers (Advia 120 coulter counter, BAYER, Germany).

[9] = tested on: male guinea pig; assay: Antitussive activity, citric acid-induced cough in guinea pig; assay type: in vivo; conditions: oral 50 mg/kg, 0.2M citric acid
Experimental: In order to measure antitussive activity of Coptidis Rhizoma extracts of Examples 1-1 to 1-3, experiment was conducted using Tanaka et al. method (Motomu Tanaka and Kei Maruyama., J. Pharmacol. Sci. 93, 465˜470, 2003., Daoui, Cognon, Naline et., Am. J. Respir. Crit. Care. Med. 158, 42˜48, 1998) in the following procedure.
A test drug was orally administered to a male guinea pig (6-weeks age, Sam tako BioKorea), and after 1 hour, the guinea pig was put in a plethysmograph chamber (Buxco, U.S.A.), and then, a cough inducer, citric acid (Sigma) was nebulized to induce cough. As positive control, theobromine (Sigma) which is used as an antitussive was used. And, the guinea pig was exposed to 0.2M citric acid for 10 minutes, and the number of coughs occurred was measured for 15 minutes.
In order to measure antitussive activities of 5 sub-fractions prepared in the above Example 1-4, experiment for antitussive activity was conducted by the same method as Experiment 3-2, of which results are presented in the following Table 7. […]

[10] = tested on: peritoneal mast cell; assay: Antihistamine activity, compound 48/80-induced histamine release from peritoneal mast cells of ovalbumin-sensitized rat; assay type: cell-based; conditions: oral dosage 5 mg/kg
Experimental: In order to measure antihistamine activity of Coptidis Rhizoma extract of Examples 1-1 to 1-3, experiment was conducted using Honuchi et al. method (Masako Honuchi and Yoshiyuki Seyama, J. Health Sci., 52(6), 711˜717, 2006., Naoki Inagaki et al. Biol. Pharm. Bull. 24(7), 829˜834, 2001.) in the following procedure.
Antihistamine effect was measured using peritoneal mast cell of a male rat (7-weeks age, Sam tako BioKorea) sensitized with ovalbumin As positive control, Ketotifen (Sigma) was used. To a rat sensitized with ovalbumin, Ketotifen was orally administered at a concentration of 5 mg/kg, and test drugs were orally administered respectively at a concentration of 200 mg/kg for 4 days, and then, peritoneal mast cells were separated. The separated peritoneal mast cells (2×10^5 cells/ml) were treated with Ketotifen at concentrations of 0.01 mg/ml, 0.1 mg/ml, and 1.0 mg/ml, and test drugs at concentrations of 0.1 mg/ml, 1.0 mg/ml, and 10 mg/ml. Finally, the mast cells were treated with compound 48/80 (Sigma) which activates non-immunological histamine release at a concentration of 10 μg/ml. At this time, the amount of histamine released from mast cells was quantified to examine whether the test materials suppress release of histamine from the mast cells. The relative amount of histamine released from mast cell in a rat to which no drug was administered was measured, of which results are presented in the following Table 5.
In order to measure antihistamine activities of 5 sub-fractions prepared in the above Example 1-4, the same experiment was conducted as the above Experiment 3-3, of which results are presented in the following Table 8.
In order to measure antihistamine effect of ivy leaf extract, and combined extract of Coptidis Rhizoma with ivy leaf (Examples 2-1 to 2-11) prepared in Example 2 in mast cell, experiment was conducted by the same method as described in [Experiment method] in Experiment 3-3 using Honuchi et al. method (Masako Honuchi and Yoshiyuki Seyama, J. Health Sci., 52(6), 711˜717, 2006., Naoki Inagaki et. Biol. Pharm. Bull. 24(7), 829˜834, 2001.), of which results are presented in the following Table 13.

In the case of `COc1ccc2cc3[n+](cc2c1OC)CCc1cc2c(cc1-3)OCO2` [Berberine, berberine], the “Capacity to discharge sputum (%)” value ([1]; oral 125 mg/kg) is reported as 39%.

`CC(C)(O)c1ccccc1CC[C@@H](SCC1(CC(=O)O)CC1)c1cccc(/C=C/c2ccc3ccc(Cl)cc3n2)c1` [montelukast, montelukast sodium] was tested, and the “IgE level” value [2] was 13.7 ± 5.7 ng/mL, the “Degree of cytokine expression IL-1β” value [3] was 0.51 ± 0.26 and the “Penh value according to methacholine dosage” value (“Penh value according” below) ([4]; methacholine 0 mg/ml) was 1.5 ± 0.2. For the same compound, the “Penh value according” value ([4]; methacholine 10 mg/ml) was 8.4 ± 2.4, the “Penh value according” value ([4]; methacholine 20 mg/ml) was 19.8 ± 5.4 and the “Degree of cytokine expression IL-13r2a” value [5] was 0.37 ± 0.31. The “Microscope observation: Degree of infiltration of inflammatory cells” value [6] was 3.7 ± 0.5, the “Microscope observation: Degree of occlusion of bronchus” value [6] was 3.5 ± 0.5 and the “Degree of cytokine expression IL-4” value [7] was 1.47 ± 0.48. The “WBC EOS (eosinophil)” value [8] was 466.0 ± 207.0 ×10^3 cells and the “WBC NEU (neutrophil)” value [8] was 22.3 ± 7.2 ×10^3 cells.

`Nc1c(Br)cc(Br)cc1CN[C@H]1CC[C@H](O)CC1` [Ambroxol, ambroxol] was tested, and the “Capacity to discharge sputum (%)” value ([1]; oral 250 mg/kg) was 34% and the “Capacity to secrete sputum (%)” value ([1]; oral 250 mg/kg, 250 mg/kg) was 32% and 30%.

In the case of `Cn1cnc2c1c(=O)[nH]c(=O)n2C` [Theobromine, theobromine], the “Capacity to suppress cough (%)” value [9] is reported as 57% and 56%.

For `CN1CCC(=C2c3ccccc3CC(=O)c3sccc32)CC1` [Ketotifen], the “Histamine release amount (%)” value ([10]; mast cell treatment 0 mg/ml) was 43% and 44%, the “Histamine release amount (%)” value ([10]; mast cell treatment 0.01 mg/ml) was 41% and the “Histamine release amount (%)” value ([10]; mast cell treatment 0.1 mg/ml) was 32%. The “Histamine release amount (%)” value ([10]; mast cell treatment 1.0 mg/ml) was 18% and 19%.
